Measured values as given in PubChem BioAssay AID192 (DTP/NCI, 2004).
“And” between values parts separate entries of the source, which are not always exact repeats. Equal entries are not always repeated. Inconclusive results and toxic doses are left out.

Test system: BDF1 mice, B16 melanoma ip, median survival T/C
Test: NCI In Vivo Anticancer Drug Screen. Data for tumor model B16 Melanoma (intraperitoneal) in B6D2F1 (BDF1) mice
Conditions: endpoint: median survival time, higher = longer survival
Summary of the method: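 The ratio T/C compares compound-treated mice with vehicle-treated controls, using survival or tumor size as the endpoint in a transplantable tumor model.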

[1] = dose: 25.0 mg/kg/injection, schedule: Q01DX009 (ip), vehicle: Klucel (hydroxypropylcellulose) (HPC)
[2] = dose: 50.0 mg/kg/injection, schedule: Q01DX009 (ip), vehicle: Klucel (hydroxypropylcellulose) (HPC)
[3] = dose: 25.0 mg/kg/injection, schedule: Q01DX009 (ip), vehicle: saline with Tween-80
[4] = dose: 50.0 mg/kg/injection, schedule: Q01DX009 (ip), vehicle: saline with Tween-80
[5] = dose: 12.5 mg/kg/injection, schedule: Q01DX009 (ip), vehicle: Klucel (hydroxypropylcellulose) (HPC)
[6] = dose: 100.0 mg/kg/injection, schedule: Q01DX009 (ip), vehicle: Klucel (hydroxypropylcellulose) (HPC)
[7] = dose: 200.0 mg/kg/injection, schedule: Q01DX009 (ip), vehicle: Klucel (hydroxypropylcellulose) (HPC)

In the case of COc1cc(C(=O)NCCS(=O)(=O)O)cc(OC)c1OC, the T/C (dose: 100.0 mg/kg/injection, schedule: Q01DX009 (ip), vehicle: saline) is reported as 97 % of control, the T/C (dose: 200.0 mg/kg/injection, schedule: Q01DX009 (ip), vehicle: saline) is reported as 111 % of control and the T/C (dose: 400.0 mg/kg/injection, schedule: Q01DX009 (ip), vehicle: saline) is reported as 103 % of control.
In the case of CN1CCC(=C(C#N)C#N)CC1, the T/C (dose: 3.13 mg/kg/injection, schedule: Q04DX003 (ip), vehicle: saline) is reported as 105 % of control, the T/C (dose: 6.25 mg/kg/injection, schedule: Q04DX003 (ip), vehicle: saline) is reported as 94 % of control and the T/C (dose: 12.5 mg/kg/injection, schedule: Q04DX003 (ip), vehicle: saline) is reported as 110 % of control.
CC1(C)N=C(N)N=C(N)N1c1ccc(OCC(=O)Nc2ccc(S(=O)(=O)F)cc2)c(Cl)c1 was tested, and the T/C (dose: 50.0 mg/kg/injection, schedule: Q04DX003 (ip), vehicle: saline) was 107 % of control and the T/C (dose: 100.0 mg/kg/injection, schedule: Q04DX003 (ip), vehicle: saline) was 124 % of control.
In the case of O=C(COc1ccc(Cl)cc1)Nc1cccnc1, the T/C [1] is reported as 90 % of control and the T/C [2] is reported as 94 % of control.
OCN(CO)c1nc(N(CO)CO)nc(N(CO)CO)n1 was tested, and the T/C (dose: 6.25 mg/kg/injection, schedule: Q01DX009 (ip), vehicle: saline with Tween-80) was 97 % of control, the T/C (dose: 12.5 mg/kg/injection, schedule: Q01DX009 (ip), vehicle: saline with Tween-80) was 100 % of control and the T/C [3] was 94 % of control. The T/C [4] was 92 % of control and the T/C (dose: 200.0 mg/kg/injection, schedule: Q01DX009 (ip), vehicle: saline with Tween-80) was 90 % of control.
With CN(Cc1cnc2nc(N)nc(N)c2n1)c1c(Cl)cc(C(=O)NC(CCC(=O)O)C(=O)O)cc1Cl (configuration not stated) the T/C (dose: 3.12 mg/kg/injection, schedule: Q01DX009 (ip), vehicle: Klucel (hydroxypropylcellulose) (HPC)) was 116 % of control, the T/C (dose: 6.25 mg/kg/injection, schedule: Q01DX009 (ip), vehicle: Klucel (hydroxypropylcellulose) (HPC)) was 111 % of control and the T/C [5] was 116 % of control. For the same molecule, the T/C (dose: 17.5 mg/kg/injection, schedule: Q01DX011 (ip), vehicle: saline) was 99 % of control, the T/C [1] was 109 % of control and the T/C (dose: 35.0 mg/kg/injection, schedule: Q01DX011 (ip), vehicle: saline) was 107 % of control. The T/C [2] was 111 % of control.
In the case of C[C@@H]1CC[C@@]2(NC1)O[C@H]1C[C@H]3[C@@H]4CC=C5C[C@@H](O)CC[C@]5(C)[C@H]4CC[C@]3(C)[C@H]1[C@@H]2C, the T/C [5] is reported as 95 % of control.
CS(=O)(=O)OCCC(=O)N1CCN(C(=O)CCOS(C)(=O)=O)CC1 was tested, and the T/C (dose: 1.56 mg/kg/injection, schedule: Q01DX009 (ip), vehicle: suspension in saline) was 114 % of control, the T/C (dose: 3.12 mg/kg/injection, schedule: Q01DX009 (ip), vehicle: suspension in saline) was 111 % of control and the T/C (dose: 6.25 mg/kg/injection, schedule: Q01DX009 (ip), vehicle: suspension in saline) was 114 % of control. The T/C (dose: 12.5 mg/kg/injection, schedule: Q01DX009 (ip), vehicle: suspension in saline) was 124 % of control, the T/C [3] was 150 % of control and the T/C [4] was 152 % of control and 170 % of control. The T/C (dose: 50.0 mg/kg/injection, schedule: Q01DX009 (ip), vehicle: suspension in saline) was 171 % of control and the T/C (dose: 100.0 mg/kg/injection, schedule: Q01DX009 (ip), vehicle: saline with Tween-80) was 160 % of control.
For CCCCC(CC)C(O)C1CCCCC1O (configuration not stated), the T/C [6] was 100 % of control and the T/C [7] was 89 % of control.
With O=C(O)C(=O)O.[U] the T/C (dose: 4.0 mg/kg/injection, schedule: Q01DX009 (ip), vehicle: Klucel (hydroxypropylcellulose) (HPC)) was 88 % of control, the T/C (dose: 8.0 mg/kg/injection, schedule: Q01DX009 (ip), vehicle: Klucel (hydroxypropylcellulose) (HPC)) was 93 % of control and the T/C (dose: 16.0 mg/kg/injection, schedule: Q01DX009 (ip), vehicle: Klucel (hydroxypropylcellulose) (HPC)) was 87 % of control.
With Cc1ccc(NC(=O)Nc2ccccc2C)c(C)c1 the T/C [2] was 115 % of control, the T/C [6] was 115 % of control and the T/C [7] was 118 % of control.
For CCN(C(=O)Nc1ccccc1)c1ccccc1, the T/C (dose: 100.0 mg/kg/injection, schedule: Q04DX003 (ip), vehicle: saline with Tween-80) was 94 % of control, the T/C (dose: 200.0 mg/kg/injection, schedule: Q04DX003 (ip), vehicle: saline with Tween-80) was 100 % of control and the T/C (dose: 400.0 mg/kg/injection, schedule: Q04DX003 (ip), vehicle: saline with Tween-80) was 97 % of control.
